Measured values: US11912723B2, “KRAS modulators and uses thereof” (Quanta Therapeutics, Inc., priority 2022, dated 2024)

What follows are compounds tested against T1, GST-tagged KRAS G12D (2-169) (Homo sapiens, UniProt P01116, G12D) (assay: Nucleotide exchange assay (NEA), HTRF of SOS-mediated GTP-DY-647P1 binding). Details: 5 nM GST-KRAS G12D, 20 nM SOScat, 150 nM GTP; compound 1 h at RT.
T1 construct: GST-tagged KRAS^G12D (2-169, Reaction Biology, MSC-11-539); purchased Reaction Biology MSC-11-539 (KRAS G12D); MSC-11-502 (SOS1cat)
T1 sequence (P01116 2-169 isoform P01116-2 G12D): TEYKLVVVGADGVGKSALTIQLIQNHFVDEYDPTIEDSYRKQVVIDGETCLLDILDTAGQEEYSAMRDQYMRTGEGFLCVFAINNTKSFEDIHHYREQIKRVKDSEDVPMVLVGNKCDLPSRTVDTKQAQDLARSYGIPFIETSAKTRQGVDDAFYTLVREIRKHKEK
Format: biochemical
Source text: This activity is tightly regulated by GTPase activating proteins (GAPs) and guanine nucleotide exchange factors (GEFs). GEFs, such as SOS1/2, activate Ras proteins by exchanging GDP for GTP, thus returning Ras to its active conformation (Simanshu, Nissley, & McCormick, 2017). […] Homogenous time resolved fluorescence (HTRF) was used to detect SOS-mediated binding of a fluorescent GTP analog, GTP-DY-647P1 (Jena Biosciences NU-820-647P1) to GST-tagged KRAS^G12D (2-169, Reaction Biology, MSC-11-539).
GST-tagged KRAS^G12D (2-169) and anti-GST MAb Tb Cryptate Gold (CisBio 61GSTTLB) were diluted into assay buffer (20 mM HEPES, pH 7.3, 150 mM NaCl, 5 mM MgCl2, 0.05% BSA 0.0025% NP40, 1 mM DTT) to prepare a 2.5× donor solution. 5× compound was added to the protein mixture and incubated for 1 h at RT. 2.5× acceptor solution containing SOS1cat (564-1049, Reaction Biology MSC-11-502) and GTP-DY-647P1 were then added to the donor KRAS mixture such that the final concentration of the reaction contained 5 nM GST-tagged KRAS^G12D (2-169), 20 nM SOScat, and 150 nM GTP. The reaction was monitored using at RT with the Envision multimode plate reader (Ex/Em 337/665, […]) up to 90 minutes at 5 minute intervals. Data was blanked to reactions without SOS1 and % inhibition was calculated such that DMSO only=0% and blank=100%. Curve fitting was done using a 4 parameter fit. NEA KRAS G12D ID50 (uM) values of selected compounds are depicted in Table 2 with compounds having a value<0.01 uM as ++++; >0.01 uM to 0.1 uM as +++; >0.1 uM to 1 uM as ++; >1 uM to 20 uM as +; and >20 uM as NA.
In the case of `O[C@@H]1CCN(c2nc(OC[C@@]34CCCN3C[C@H](F)C4)nc3c2COC2(CCc4c(Cl)cccc42)C3)CC[C@@H]1O` (stereo partly drawn) [Compound 22, syn-1-[4′-chloro-2-[[(2R,8S)-2-fluoro-1,2,3,5,6,7-hexahydropyrrolizin-8-yl]methoxy]spiro[5,8-dihydropyrano[4,3-d]pyrimidine-7,1′-indane]-4-yl]azepane-4,5-diol], the IC50 is reported as 1 to 20 µM.
Work on `OC1CCCN(c2nc(OC[C@@]34CCCN3C[C@H](F)C4)nc3c2COC2(CCCc4ccc(F)cc42)C3)CC1` (stereo partly drawn) [Compound 11, 1-[7′-fluoro-2-[[(2R,8S)-2-fluoro-1,2,3,5,6,7-hexahydropyrrolizin-8-yl]methoxy]spiro[5,8-dihydropyrano[4,3-d]pyrimidine-7,1′-tetralin]-4-yl]azepan-4-ol] yielded an IC50 of 1 to 20 µM.
`N#CN[C@@H]1CCCCN(c2nc(OC[C@@]34CCCN3C[C@H](F)C4)nc3c2CO[C@@]2(CCc4c(Cl)cccc42)C3)C1` [Compound 44, [(3R)-1-[(7S)-4′-chloro-2-[[(2R)-2-fluoro-1,2,3,5,6,7-hexahydropyrrolizin-8-yl]methoxy]spiro[5,8-dihydropyrano[4,3-d]pyrimidine-7,1′-indane]-4-yl]azepan-3-yl]cyanamide] gave an IC50 of 1 to 20 µM.
With `CN1Cc2c(nc(OC[C@@]34CCCN3C[C@H](F)C4)nc2N2CCC[C@]3(C2)NC(=O)NC3=O)C[C@]12CCc1c(Cl)cccc12` [Compound 58, (5R)-9-[(7S)-4′-chloro-2-[[(2R,8S)-2-fluoro-1,2,3,5,6,7-hexahydropyrrolizin-8-yl]methoxy]-6-methyl-spiro[5,8-dihydropyrido[4,3-d]pyrimidine-7,1′-indane]-4-yl]-1,3,9-triazaspiro[4.5]decane-2,4-dione] the IC50 was 0.01 to 0.1 µM.
Work on `N#Cc1c(N)sc2c1C1(CCC2)Cc2nc(OC[C@@]34CCCN3C[C@H](F)C4)nc(N3CCCCCC3)c2CO1` (mixture of isomers) [Compound 26, 2′-amino-4-(azepan-1-yl)-2-[[rac-(2R,8S)-2-fluoro-1,2,3,5,6,7-hexahydropyrrolizin-8-yl]methoxy]spiro[5,8-dihydropyrano[4,3-d]pyrimidine-7,4′-6,7-dihydro-5H-benzothiophene]-3′-carbonitrile] yielded an IC50 of 1 to 20 µM.
`CN(C)C(=O)c1nn2c(c1Cl)CN(c1nc(OC[C@@]34CCCN3C[C@H](F)C4)nc3c1CN(CC#N)[C@@]1(CCCc4ccccc41)C3)CCC2` [Compound 102, 3-chloro-5-[(7S)-6-(cyanomethyl)-2-[[(2R,8S)-2-fluoro-1,2,3,5,6,7-hexahydropyrrolizin-8-yl]methoxy]spiro[5,8-dihydropyrido[4,3-d]pyrimidine-7,1′-tetralin]-4-yl]-N,N-dimethyl-4,6,7,8-tetrahydropyrazolo[1,5-a][1,4]diazepine-2-carboxamide] was tested, and the IC50 was 0.01 to 0.1 µM.
Compound `CCN1Cc2c(nc(OC[C@@]34CCCN3C[C@H](F)C4)nc2N2CCCn3nc(C(=O)N(C)C)c(Cl)c3C2)C[C@]12CCc1cccc(F)c12` [Compound 103, 3-chloro-5-[(7S)-6-ethyl-7′-fluoro-2-[[(2R,8S)-2-fluoro-1,2,3,5,6,7-hexahydropyrrolizin-8-yl]methoxy]spiro[5,8-dihydropyrido[4,3-d]pyrimidine-7,1′-indane]-4-yl]-N,N-dimethyl-4,6,7,8-tetrahydropyrazolo[1,5-a][1,4]diazepine-2-carboxamide] has an IC50 of 0.01 to 0.1 µM.
With `C[C@@]1(O)CCCN(c2nc(OC[C@@]34CCCN3C[C@H](F)C4)nc3c2COC2(CCc4c(Cl)cccc42)C3)C1` (single isomer, unassigned) [Compound 23B, (3R)-1-[(7*)-4′-chloro-2-[[(2R,8S)-2-fluoro-1,2,3,5,6,7-hexahydropyrrolizin-8-yl]methoxy]spiro[5,8-dihydropyrano[4,3-d]pyrimidine-7,1′-indane]-4-yl]-3-methyl-piperidin-3-ol] the IC50 was 1 to 20 µM.
`CN(C)C(=O)c1nn2c(c1Cl)CN(c1nc(OC[C@@]34CCCN3C[C@H](F)C4)nc3c1COC1(CCc4ccc(C(F)F)cc41)C3)CCC2` (stereo partly drawn) [Compound 75, 3-chloro-5-[6′-(difluoromethyl)-2-[[(2R,8S)-2-fluoro-1,2,3,5,6,7-hexahydropyrrolizin-8-yl]methoxy]spiro[5,8-dihydropyrano[4,3-d]pyrimidine-7,1′-indane]-4-yl]-N,N-dimethyl-4,6,7,8-tetrahydropyrazolo[1,5-a][1,4]diazepine-2-carboxamide] gave an IC50 of 0.1 to 1 µM.
With `O=C(c1nn2c(c1Cl)CN(c1nc(OC[C@@]34CCCN3C[C@H](F)C4)nc3c1CO[C@@]1(CCc4c(Cl)cccc41)C3)CCC2)N1CCS(=O)(=O)CC1` [Compound 56, [3-chloro-5-[(7R)-4′-chloro-2-[[(2R,8S)-2-fluoro-1,2,3,5,6,7-hexahydropyrrolizin-8-yl]methoxy]spiro[5,8-dihydropyrano[4,3-d]pyrimidine-7,1′-indane]-4-yl]-4,6,7,8-tetrahydropyrazolo[1,5-a][1,4]diazepin-2-yl]-(1,1-dioxo-1,4-thiazinan-4-yl)methanone] the IC50 was 0.01 to 0.1 µM.
`C[C@@]1(NC#N)CCCN(c2nc(OC[C@@]34CCCN3C[C@H](F)C4)nc3c2COC2(CCc4c(Cl)cccc42)C3)C1` (stereo partly drawn) [Compound 46B, [(3R)-1-[(7*)-4′-chloro-2-[[(2R,8S)-2-fluoro-1,2,3,5,6,7-hexahydropyrrolizin-8-yl]methoxy]spiro[5,8-dihydropyrano[4,3-d]pyrimidine-7,1′-indane]-4-yl]-3-methyl-3-piperidyl]cyanamide; 2,2,2-trifluoroacetic acid] gave an IC50 of 1 to 20 µM.
For `O=C1NC(=O)[C@]2(CCCN(c3nc(OC[C@@]45CCCN4C[C@H](F)C5)nc4c3COC3(CCCc5c(Cl)cc(O)cc53)C4)C2)N1` (single isomer, unassigned) [Compound 51A, (5R)-9-[(7*)-5′-chloro-2-[[(2R,8S)-2-fluoro-1,2,3,5,6,7-hexahydropyrrolizin-8-yl]methoxy]-7′-hydroxy-spiro[5,8-dihydropyrano[4,3-d]pyrimidine-7,1′-tetralin]-4-yl]-1,3,9-triazaspiro[4.5]decane-2,4-dione], the IC50 was 1 to 20 µM.
With `O=C1CCCN(c2nc(OCC34CCCN3CC(F)C4)nc3c2COC2(CCc4c(Cl)cccc42)C3)CC1` (mixture of isomers) [Compound 21, 1-[4′-chloro-2-[[rac-(2R,8S)-2-fluoro-1,2,3,5,6,7-hexahydropyrrolizin-8-yl]methoxy]spiro[5,8-dihydropyrano[4,3-d]pyrimidine-7,1′-indane]-4-yl]azepan-4-one] the IC50 was 1 to 20 µM.
`F[C@H]1CN2CCC[C@@]2(COc2nc3c(c(N4CCCCCC4)n2)COC2(CCCc4ccccc42)C3)C1` (stereo partly drawn) [Compound 12, 4-(azepan-1-yl)-2-[[(2R,8S)-2-fluoro-1,2,3,5,6,7-hexahydropyrrolizin-8-yl]methoxy]spiro[5,8-dihydropyrano[4,3-d]pyrimidine-7,1′-tetralin]] gave an IC50 of 1 to 20 µM.
With `CN(C)C(=O)c1nn2c(c1Cl)CN(c1nc(OC[C@@]34CCCN3C[C@H](F)C4)nc3c1CN(CC#N)[C@@]1(CCc4cccc(F)c41)C3)CCC2` [Compound 101, 3-chloro-5-[(7S)-6-(cyanomethyl)-7′-fluoro-2-[[(2R,8S)-2-fluoro-1,2,3,5,6,7-hexahydropyrrolizin-8-yl]methoxy]spiro[5,8-dihydropyrido[4,3-d]pyrimidine-7,1′-indane]-4-yl]-N,N-dimethyl-4,6,7,8-tetrahydropyrazolo[1,5-a][1,4]diazepine-2-carboxamide] the IC50 was 0.1 to 1 µM.
